Patent US20030134865A1, “Modulation of histone deacetylase” (priority 2003, published 2003)

Key:
HDAC activity [1] = assay: Total HDAC activity in bronchial biopsies of treated asthmatics; assay type: in vivo, human; conditions: placebo 67±12, p<0.05
Source text: (§1) FIG. 16. Effect of theophylline on HDAC expression and activity in vivo. (a) Western blot analysis of HDAC1 and HDAC 2 expression in bronchial biopsies from mild asthmatic subjects treated with low dose theophylline (LDT) or placebo. (b) Graphical expression of the effect of LDT and placebo on HDAC1 and HDAC2 expression relative to β-actin. (c) Effect of LDT and P on HDAC activity in bronchial biopsies. N=14.

[2] = tested on: histone deacetylase (HDAC) activity, A549 cells; assay: Histone deacetylation activity in total cellular extracts of treated A549 cells
Procedure: (B) Effect of Trichostatin A (TSA) on histone deacetylase activity and histone H4 acetylation. Cells were treated with increasing concentrations of TSA for 6 hrs before total cellular proteins were isolated and analysed for deacetylase activity and also histone acetylation by Western blotting using an anti-pan acetylated histone H4 antibody.
Effect of theophylline on histone deacetylase (HDAC) activity in A549 cells. (a) Cells were stimulated with LPS (3 ng/ml) for 24 hours in the presence or absence of theophylline (10^−5 M) or Dex (10^−6 M). Total cellular proteins were extracted and histone deacetylase activity measured. (b) Direct effect of theophylline on HDAC activity. […] Results are expressed as mean±SEM (n=3-5, *p<0.05, **p<0.01).

HDAC1 [3] = assay: HDAC1 expression in A549 cells (Western blot); assay type: cell-based
Procedure: (§2) FIG. 12. Effect of theophylline on HDAC expression. […]. Band densities were controlled for protein loading by comparison with β-actin expression. Results are shown as relative band densities.
(§3) Western blotting: Immunoprecipitates, whole cell extractions or isolated histones were measured by SDS-PAGE and Western blot analysis using ECL (Amersham, Amersham, UK). Proteins were size-fractionated by SDS-PAGE and transferred to Hybond-ECL membranes. Specific protein bands were detected by ECL according to the manufacturer's instructions.

HDAC1 [4] = assay: HDAC1 expression in bronchial biopsies of treated asthmatics (Western blot); assay type: in vivo, human; conditions: placebo 0.28±0.09, p<0.05
Source text: as §1, §3

[5] = Double-blind cross-over study of low dose theophylline in mild stable asthmatic subjects; conditions: 5 weeks low dose theophylline
Source text: Patients: Fifteen mild stable asthmatic subjects (Table 1) receiving treatment with only the inhaled β2-adrenergic agonist aerosol, albuterol, for intermittent relief of wheeze were recruited. […] All patients were atopic as defined by two or more positive skin prick tests to common allergens. […] Current smokers or ex-smokers of more than five pack years and patients with FEV1 less than 80% predicted were excluded.
Fibreoptic bronchoscopy and isolation of BAL macrophages: Subjects attended our bronchoscopy suite at 8.30 am after having fasted from midnight and were pretreated with atropine (0.6 mg iv) and midazolam (5-10 mg iv). Oxygen (31/min) was administered via nasal prongs throughout the procedure and oxygen saturation was monitored with a digital oximeter. Using local anaesthesia with lidocaine (4%) to the upper airways and larynx, a fibreoptic bronchoscope (Olympus BF10) was passed through the nasal passages into the trachea. Bronchoalveolar lavage (BAL) was performed from the right middle lobe using warmed 0.9% NaCl with 4 successive aliquots of 60 mls of 0.9% NaCl. […] Cytospins were prepared and stained with May-Grunwald stain for differential cell counts. Cell viability was assessed using trypan blue exclusion.

HDAC3 = target: T1, HDAC3 (Homo sapiens, UniProt O15379); assay: Immunoprecipitated HDAC3 activity; assay type: cell-based; conditions: theophylline 10^−5 M
T1 construct: endogenous in cells
T1 sequence (O15379 whole entry): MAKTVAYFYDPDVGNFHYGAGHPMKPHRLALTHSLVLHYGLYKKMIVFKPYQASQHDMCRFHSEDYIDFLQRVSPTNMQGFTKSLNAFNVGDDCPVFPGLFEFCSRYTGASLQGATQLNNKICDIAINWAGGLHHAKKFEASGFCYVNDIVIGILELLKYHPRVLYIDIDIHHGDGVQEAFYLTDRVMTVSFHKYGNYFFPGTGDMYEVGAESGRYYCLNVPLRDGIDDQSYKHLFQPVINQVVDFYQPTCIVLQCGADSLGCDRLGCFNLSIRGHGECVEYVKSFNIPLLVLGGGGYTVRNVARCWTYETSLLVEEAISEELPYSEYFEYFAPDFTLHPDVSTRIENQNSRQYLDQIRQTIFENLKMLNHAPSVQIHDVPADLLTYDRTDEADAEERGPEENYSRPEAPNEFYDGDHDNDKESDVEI
T1 sequence (Q9Y618 whole entry partner): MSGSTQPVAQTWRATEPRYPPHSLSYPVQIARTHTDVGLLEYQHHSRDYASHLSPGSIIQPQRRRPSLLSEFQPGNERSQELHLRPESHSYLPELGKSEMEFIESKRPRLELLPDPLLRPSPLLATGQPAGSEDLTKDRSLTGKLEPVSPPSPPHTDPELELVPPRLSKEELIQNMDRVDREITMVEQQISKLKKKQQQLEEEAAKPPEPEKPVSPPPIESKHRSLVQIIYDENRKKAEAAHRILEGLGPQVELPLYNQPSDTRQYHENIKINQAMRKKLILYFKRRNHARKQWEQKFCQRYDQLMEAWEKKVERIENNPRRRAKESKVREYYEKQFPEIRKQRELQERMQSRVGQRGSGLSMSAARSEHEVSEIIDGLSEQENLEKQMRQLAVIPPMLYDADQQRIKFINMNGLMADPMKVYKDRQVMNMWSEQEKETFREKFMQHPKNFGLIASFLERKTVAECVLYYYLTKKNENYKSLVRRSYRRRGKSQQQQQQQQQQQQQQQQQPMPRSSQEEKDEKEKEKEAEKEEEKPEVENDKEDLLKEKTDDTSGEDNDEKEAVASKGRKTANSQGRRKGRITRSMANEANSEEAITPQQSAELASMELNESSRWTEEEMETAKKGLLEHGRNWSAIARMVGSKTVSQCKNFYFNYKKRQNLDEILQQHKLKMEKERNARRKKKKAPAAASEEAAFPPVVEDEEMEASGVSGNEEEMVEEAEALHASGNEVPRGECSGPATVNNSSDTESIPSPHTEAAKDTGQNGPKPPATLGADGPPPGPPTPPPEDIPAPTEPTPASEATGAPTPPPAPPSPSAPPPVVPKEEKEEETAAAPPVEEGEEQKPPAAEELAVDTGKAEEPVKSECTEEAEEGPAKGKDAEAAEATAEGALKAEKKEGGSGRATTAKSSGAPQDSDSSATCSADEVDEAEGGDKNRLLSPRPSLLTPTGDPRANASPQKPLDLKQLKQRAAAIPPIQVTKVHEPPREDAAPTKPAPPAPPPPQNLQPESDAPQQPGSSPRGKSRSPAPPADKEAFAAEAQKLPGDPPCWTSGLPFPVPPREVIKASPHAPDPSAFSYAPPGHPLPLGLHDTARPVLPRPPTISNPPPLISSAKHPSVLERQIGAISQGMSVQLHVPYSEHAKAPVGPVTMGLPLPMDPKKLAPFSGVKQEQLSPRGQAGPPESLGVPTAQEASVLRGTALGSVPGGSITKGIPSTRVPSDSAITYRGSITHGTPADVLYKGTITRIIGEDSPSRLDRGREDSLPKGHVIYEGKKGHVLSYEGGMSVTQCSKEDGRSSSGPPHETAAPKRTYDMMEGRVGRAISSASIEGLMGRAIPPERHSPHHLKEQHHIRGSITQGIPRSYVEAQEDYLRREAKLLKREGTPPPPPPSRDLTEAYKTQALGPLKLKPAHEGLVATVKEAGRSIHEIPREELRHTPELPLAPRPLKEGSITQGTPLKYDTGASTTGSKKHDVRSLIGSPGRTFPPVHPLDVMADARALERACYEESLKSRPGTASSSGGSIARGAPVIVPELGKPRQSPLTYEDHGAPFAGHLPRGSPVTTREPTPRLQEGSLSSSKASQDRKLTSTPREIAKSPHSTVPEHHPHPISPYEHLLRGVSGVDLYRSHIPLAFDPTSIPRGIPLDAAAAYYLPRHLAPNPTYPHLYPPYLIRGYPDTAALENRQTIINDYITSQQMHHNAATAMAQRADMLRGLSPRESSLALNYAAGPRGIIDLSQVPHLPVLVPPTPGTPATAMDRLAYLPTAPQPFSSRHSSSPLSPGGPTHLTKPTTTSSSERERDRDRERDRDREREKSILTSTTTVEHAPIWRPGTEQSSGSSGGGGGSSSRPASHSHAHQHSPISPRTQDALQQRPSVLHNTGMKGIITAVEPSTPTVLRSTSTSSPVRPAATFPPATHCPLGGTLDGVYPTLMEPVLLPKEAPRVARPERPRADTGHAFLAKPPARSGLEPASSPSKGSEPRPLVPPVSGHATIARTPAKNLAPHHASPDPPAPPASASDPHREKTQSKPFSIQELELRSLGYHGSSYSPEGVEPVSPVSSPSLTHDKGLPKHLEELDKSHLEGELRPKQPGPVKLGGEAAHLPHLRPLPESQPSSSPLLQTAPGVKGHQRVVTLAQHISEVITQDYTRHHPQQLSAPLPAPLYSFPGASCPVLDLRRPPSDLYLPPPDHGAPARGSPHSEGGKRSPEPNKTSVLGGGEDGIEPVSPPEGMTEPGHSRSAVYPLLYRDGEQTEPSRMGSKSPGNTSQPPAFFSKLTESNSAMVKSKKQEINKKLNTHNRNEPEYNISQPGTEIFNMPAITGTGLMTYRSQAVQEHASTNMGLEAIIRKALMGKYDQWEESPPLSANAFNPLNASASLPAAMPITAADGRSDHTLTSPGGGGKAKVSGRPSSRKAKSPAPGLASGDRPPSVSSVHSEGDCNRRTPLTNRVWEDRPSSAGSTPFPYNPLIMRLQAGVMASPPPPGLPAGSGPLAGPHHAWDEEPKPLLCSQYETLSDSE
Source text: (§4) FIG. 22. Effect of theophylline on HDAC1, HDAC2 and HDAC3 activity.
(§5) Using IP-HAT assays we were able to determine which HDACs were the target for theophylline action.

[6] = tested on: IL-8 release, alveolar macrophages; assay: LPS-induced IL-8 release from alveolar macrophages; assay type: cell-based, human; conditions: macrophages from non-smokers
[7] = tested on: GM-CSF release, A549 cells; assay: GM-CSF release from A549 cells (ELISA)
Procedure: Determination of GM-CSF expression was measured by sandwich ELISA (Pharmingen, Lugano, Switzerland) according to the manufacturer's instructions.
GM-CSF ELISA: Determination of GM-CSF expression was measured by sandwich ELISA (Pharmingen, Lugano, Switzerland) according to the manufacturer's instructions.

HDAC2 [8] = assay: HDAC2 expression in bronchial biopsies of treated asthmatics (Western blot); assay type: in vivo, human; conditions: placebo 0.28±0.08, p=0.1
Source text: as §1, §3

HDAC2 [9] = assay: HDAC2 expression in A549 cells (Western blot); assay type: cell-based; conditions: for HDAC2 expression: A549 cells
Source text: […]. Proteins were extracted and size fractionated by SDS-PAGE and HDAC2 detected by Western blotting. Densitometric analysis of HDAC2 expression is shown graphically in the lower panel. Data from 3 separate experiments was normalised to β-actin and results expressed as mean±SEM. *p<0.05.
as §2
Immunoprecipitates, whole cell extractions or isolated histones were measured by SDS-PAGE and Western blot analysis using ECL (Amersham, Amersham, UK). Proteins were size-fractionated by SDS-PAGE and transferred to Hybond-ECL membranes. Immunoreactive bands were detected by ECL.
as §3

HDAC2 [10] = target: T2, HDAC2 (Homo sapiens, UniProt Q92769); assay: Immunoprecipitated HDAC2 activity; assay type: cell-based; conditions: theophylline 10^−5 M
T2 construct: endogenous in cells
T2 sequence (Q92769 whole entry): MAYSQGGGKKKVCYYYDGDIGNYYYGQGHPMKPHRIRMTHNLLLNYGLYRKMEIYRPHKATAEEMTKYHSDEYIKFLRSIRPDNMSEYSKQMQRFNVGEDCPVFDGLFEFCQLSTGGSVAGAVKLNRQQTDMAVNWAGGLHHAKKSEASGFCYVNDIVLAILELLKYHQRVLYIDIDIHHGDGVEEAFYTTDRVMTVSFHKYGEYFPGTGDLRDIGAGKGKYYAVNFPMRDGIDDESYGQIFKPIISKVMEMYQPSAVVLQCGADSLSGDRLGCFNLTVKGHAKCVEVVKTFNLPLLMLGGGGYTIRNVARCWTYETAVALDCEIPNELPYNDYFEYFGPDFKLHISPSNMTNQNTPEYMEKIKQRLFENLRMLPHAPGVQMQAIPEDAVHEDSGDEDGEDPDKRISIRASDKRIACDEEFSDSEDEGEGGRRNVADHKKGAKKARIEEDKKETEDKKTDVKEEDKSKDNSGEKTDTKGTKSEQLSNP
Source text: as §4, §5

[11] = tested on: HDAC activity, BAL macrophages; assay: HDAC activity in BAL macrophages; assay type: cell-based, human; conditions: 24 hours
HDAC activity [12] = assay: Direct effect on HDAC activity of nuclear proteins from untreated A549 cells; assay type: biochemical
Procedure: FIG. 13. […] (a) Direct effect of the PDE4 inhibitor rolipram (10 μM) and the adenosine receptor antagonist CGS-15943 (10 μM) on HDAC activity. […] (b) Direct effect of the MEK inhibitor PD089159 (1 μM) and the p38 MAPK inhibitor SB203580 on theophylline induced HDAC activity.

[13] = tested on: HDAC activity, alveolar macrophages; assay: HDAC activity in alveolar macrophages from non-smokers or smokers; conditions: theophylline 10^−5 M, dexamethasone 10^−10 M
[14] = tested on: histone acetyltransferase (HAT) activity, A549 cells
Procedure: (a) Cells were stimulated with LPS (3 ng/ml) for 24 hours in the presence or absence of theophylline (10^−5 M) or Dex (10^−6 M). Total cellular proteins were extracted and histone acetylase activity measured. (b) GM-CSF release into the culture medium was measured after 6 hours by ELISA.
After incubation for 10 min at 37° C. cells were stimulated for 6 hr. Histones were isolated and separated by electrophoresis on SDS-16% polyacrylamide gel. Gels were stained with Coommasie brilliant blue and the core histones (H2A, H2B, H3 and H4) excised. The radioactivity in extracted core histones was determined by liquid scintillation counting and normalised to protein level.

HDAC1 [15] = target: T3, HDAC1 (Homo sapiens, UniProt Q13547); assay: Immunoprecipitated HDAC1 activity; assay type: cell-based; conditions: theophylline 10^−5 M
T3 construct: endogenous in cells
T3 sequence (Q13547 whole entry): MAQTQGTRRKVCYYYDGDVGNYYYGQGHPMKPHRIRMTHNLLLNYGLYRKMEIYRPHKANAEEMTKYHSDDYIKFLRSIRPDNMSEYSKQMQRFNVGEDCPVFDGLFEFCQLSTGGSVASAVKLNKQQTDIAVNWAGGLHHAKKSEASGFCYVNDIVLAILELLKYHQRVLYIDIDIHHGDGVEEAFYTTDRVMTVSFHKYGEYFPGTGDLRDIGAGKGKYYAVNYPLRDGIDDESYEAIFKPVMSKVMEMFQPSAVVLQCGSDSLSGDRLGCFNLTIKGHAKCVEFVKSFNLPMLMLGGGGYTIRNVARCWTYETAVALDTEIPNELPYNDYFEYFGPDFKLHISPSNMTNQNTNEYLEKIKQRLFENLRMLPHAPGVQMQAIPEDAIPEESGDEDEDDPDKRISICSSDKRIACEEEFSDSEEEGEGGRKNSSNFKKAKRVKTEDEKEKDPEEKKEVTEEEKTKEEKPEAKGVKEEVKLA
Source text: as §4, §5

[16] = theophylline 10^−5 M, dexamethasone 10^−10 M

Cn1c(=O)c2[nH]cnc2n(C)c1=O [theophylline]
total HDAC activity in biopsies (HDAC activity [1]): 111±15 dpm/mg protein | total cell HDAC activity after IL-1β plus H2O2 ([2]; 4 hrs, theophylline pre-treatment 10^−5 M, 10 min): significantly increased | total cell HDAC activity in LPS-stimulated cells ([2]; pretreatment 60 min, up to 10^−5 M, measured at 24 hrs): significantly increased | HDAC1 expression (HDAC1 [3]; 24 hours, theophylline 10^−4 M): induced | HDAC1 expression (HDAC1 [3]; 24 hrs): no effect | HDAC1 expression relative to β-actin (HDAC1 [4]): 0.44±0.06 | BAL eosinophils [5]: 1.7±0.28% | FEV1 [5]: 3.4±0.09 | FEV1 (% predicted) [5]: 92.8 ± 2.6% | Muscosal eosinophils [5]: 1.19 ± 0.43 | NO [5]: 23.2 ± 3.8 | PC20 methacholine [5]: 1.2±0.35 | PEF am [5]: 469±19 | mucosal eosinophils [5]: 1.19±0.43 eosinophils/high powered field | BAL eosinophils ([5]; listed as Theophylline): 1.7 ± 0.28% | FEV1 ([5]; listed as Theophylline): 3.42 ± 0.09 | PC20 methacholine ([5]; listed as Theophylline): 1.2 ± 0.35 | PEF am ([5]; listed as Theophylline): 469 ± 19 | HDAC3 activity (HDAC3): significant induction | LPS-induced IL-8 release [6]: no effect | LPS-induced GM-CSF release ([7]; LPS 3 ng/ml): not associated with a significant reduction | GM-CSF release after IL-1β plus H2O2, each alone [7, 16]: neither theophylline (10^−5 M) nor dexamethasone (10^−10 M) alone had any effect | IL-1β-stimulated GM-CSF release, each alone [7, 16]: failed to inhibited | decrease in IL-1β-stimulated GM-CSF release ([7]; theophylline 10^−5 M, dexamethasone 10^−10 M, alone or combined): 20% | HDAC2 expression relative to β-actin (HDAC2 [8]): 0.49±0.20 | IL-1β+H2O2-induced reduction in HDAC2 expression (HDAC2 [9]; 24 hrs): restored | HDAC2 expression (HDAC2 [9]; 24 hrs): no effect | HDAC2 expression (HDAC2 [9]; 24 hours): no effect | HDAC2 activity (HDAC2 [10]): without having any effect | HDAC activity at 10^−4 M [11]: decreased to control levels | concentration of maximal increase in HDAC activity [11]: 10^−5 M | HDAC activity ([11]; rolipram 10 μM): concentration-dependent increase | direct effect on HDAC activity at higher concentrations (HDAC activity [12]; 10^−4-10^−3 M): inhibited HDAC activity | concentration of maximum increase in HDAC activity (direct) (HDAC activity [12]; nuclear extracts): 10^−5 M | direct effect on HDAC activity (HDAC activity [12]; nuclear extracts, IBMX 500 μM, rolipram 10 μM, CGS-15943 10 μM): concentration-dependent increase | HDAC activity, macrophages from non-smokers [13]: significantly enhanced | basal HAT activity [14]: Neither theophylline nor dexamethasone had any effect | LPS-induced whole cell HAT activity ([14]; LPS 3 ng/ml, 24 hrs): significant concentration-dependent inhibitory effect | HDAC1 activity (HDAC1 [15]): significant induction
